Active and inactive are the calls of the source. The rule behind the calls is not given here.
Key:
Assay type in all cases: functional
Bacillus subtilis [1] = experiment: Antibacterial activity against Bacillus subtilis at 4 ug/ml after 24 hr by agar cup-plate method; conditions: read-out: DIZ
Paracoccus denitrificans [2] = experiment: Antibacterial activity against Paracoccus denitrificans at 4 ug/ml after 24 hr by agar cup-plate method; conditions: read-out: DIZ
Klebsiella aerogenes [3] = experiment: Antibacterial activity against Enterobacter aerogenes at 4 ug/ml after 24 hr by agar cup-plate method; conditions: read-out: DIZ
Pseudomonas syringae [4] = experiment: Antibacterial activity against Pseudomonas syringae at 4 ug/ml after 24 hr by agar cup-plate method; conditions: read-out: DIZ
Rhizopus arrhizus [5] = experiment: Antifungal activity against Rhizopus oryzae at 100 ug/ml after 48 hr by paper disk diffusion method; conditions: for zone of inhibition at 100 µg/mL: read-out: IZ
Rhizopus arrhizus [6] = experiment: Antifungal activity against Rhizopus oryzae at 50 ug/ml after 48 hr by paper disk diffusion method; conditions: for zone of inhibition at 50 µg/mL: read-out: IZ
Klebsiella aerogenes [7] = experiment: Antibacterial activity against Enterobacter aerogenesat 50 ug/ml after 24 hr by agar cup-plate method
Aspergillus flavus [8] = experiment: Antifungal activity against Aspergillus flavus at 100 ug/ml after 48 hr by paper disk diffusion method; conditions: read-out: IZ
Paracoccus denitrificans [9] = experiment: Antibacterial activity against Paracoccus denitrificans at 50 ug/ml after 24 hr by agar cup-plate method; conditions: read-out: DIZ
Aspergillus niger [10] = experiment: Antifungal activity against Aspergillus niger at 50 ug/ml after 48 hr by paper disk diffusion method; conditions: read-out: IZ
Aspergillus niger [11] = experiment: Antifungal activity against Aspergillus niger at 100 ug/ml after 48 hr by paper disk diffusion method; conditions: read-out: IZ
Bacillus subtilis [12] = experiment: Antibacterial activity against Bacillus subtilis at 50 ug/ml after 24 hr by agar cup-plate method; conditions: read-out: DIZ
Aspergillus flavus [13] = experiment: Antifungal activity against Aspergillus flavus at 50 ug/ml after 48 hr by paper disk diffusion method; conditions: read-out: IZ
Pseudomonas syringae [14] = experiment: Antibacterial activity against Pseudomonas syringae at 50 ug/ml after 24 hr by agar cup-plate method; conditions: read-out: DIZ

SMILES	zone of inhibition at 4 µg/mL (Bacillus subtilis [1])	zone of inhibition at 4 µg/mL (Paracoccus denitrificans [2])	zone of inhibition at 4 µg/mL (Klebsiella aerogenes [3])	zone of inhibition at 4 µg/mL (Pseudomonas syringae [4])	inhibition zone (IZ) (Rhizopus arrhizus [5])	inhibition zone (IZ) (Rhizopus arrhizus [6])	diameter of the inhibition zone (DIZ) (Klebsiella aerogenes [7])	zone of inhibition at 100 µg/mL (Aspergillus flavus [8])	zone of inhibition at 50 µg/mL (Paracoccus denitrificans [9])	zone of inhibition at 50 µg/mL (Aspergillus niger [10])	zone of inhibition at 100 µg/mL (Aspergillus niger [11])	zone of inhibition at 50 µg/mL (Bacillus subtilis [12])	zone of inhibition at 50 µg/mL (Aspergillus flavus [13])	zone of inhibition at 50 µg/mL (Pseudomonas syringae [14])	zone of inhibition at 100 µg/mL (Rhizopus arrhizus [5])	zone of inhibition at 50 µg/mL (Rhizopus arrhizus [6])
CCn1cc(C(=O)O)c(=O)c2cc(F)c(N3CCNCC3)cc21 [NORFLOXACIN]	> 21 mm	13 mm	> 21 mm	> 21 mm	–	–	–	–	–	–	–	–	–	–	–	–
Cc1ccccc1NC1=C(Cl)C(=O)C(Nc2ccccc2C)=C(Cl)C1=O	–	–	–	–	inactive	inactive	3 mm	3 mm	3 mm	3 mm	3 mm	3 mm	3 mm	3 mm	–	–
COC1=CC(=O)C[C@@H](C)[C@]12Oc1c(Cl)c(OC)cc(OC)c1C2=O [GRISEOFULVIN]	–	–	–	–	–	–	–	> 21 mm	–	> 21 mm	> 21 mm	–	> 21 mm	–	> 21 mm	> 21 mm
COc1ccccc1NC1=C(Cl)C(=O)C(Nc2ccccc2OC)=C(Cl)C1=O	–	–	–	–	–	–	10 mm	10 mm	13 mm	10 mm	13 mm	3 mm	3 mm	3 mm	10 mm	3 mm
O=C1C(Cl)=C(Nc2ccccc2F)C(=O)C(Cl)=C1Nc1ccccc1F	–	–	–	–	–	–	13 mm	13 mm	> 21 mm	13 mm	> 21 mm	> 21 mm	10 mm	13 mm	13 mm	10 mm
O=C1C(Cl)=C(Nc2ccccc2Cl)C(=O)C(Cl)=C1Nc1ccccc1Cl	–	–	–	–	–	–	10 mm	13 mm	13 mm	10 mm	13 mm	13 mm	10 mm	10 mm	13 mm	10 mm
O=C1C(Cl)=C(Nc2ccc(Br)cc2)C(=O)C(Cl)=C1Nc1ccc(Br)cc1	–	–	–	–	–	–	10 mm	13 mm	13 mm	10 mm	> 21 mm	13 mm	10 mm	10 mm	13 mm	3 mm
O=C1C(Cl)=C(Nc2ccc(F)cc2)C(=O)C(Cl)=C1Nc1ccc(F)cc1	–	–	–	–	–	–	10 mm	13 mm	13 mm	13 mm	> 21 mm	> 21 mm	13 mm	13 mm	13 mm	10 mm
COc1ccc(NC2=C(Cl)C(=O)C(Nc3ccc(OC)cc3)=C(Cl)C2=O)cc1	–	–	–	–	–	inactive	3 mm	13 mm	13 mm	3 mm	10 mm	10 mm	10 mm	10 mm	3 mm	–
O=C1C(Cl)=C(Nc2ccc(Cl)cc2)C(=O)C(Cl)=C1Nc1ccc(Cl)cc1	–	–	–	–	–	–	13 mm	13 mm	10 mm	10 mm	10 mm	10 mm	10 mm	10 mm	10 mm	3 mm
O=C1C(Cl)=C(Nc2ccccc2)C(=O)C(Cl)=C1Nc1ccccc1	–	–	–	–	–	inactive	inactive	3 mm	10 mm	3 mm	10 mm	3 mm	3 mm	10 mm	3 mm	–
Cc1ccc(NC2=C(Cl)C(=O)C(Nc3ccc(C)cc3)=C(Cl)C2=O)cc1	–	–	–	–	inactive	inactive	inactive	10 mm	10 mm	3 mm	10 mm	3 mm	3 mm	3 mm	–	–
